# Molecular target: T1, Sortase A (SrtA) (Staphylococcus aureus, UniProt Q2FV99)
# T1 construct: SrtAΔN59
# Experiment: FRET peptide cleavage assay (Dabcyl-QALPETGEE-Edans) with purified SrtAΔN59, […] CaCl2 in the buffer
# Assay type: biochemical
# T1 sequence (Q2FV99 60-206): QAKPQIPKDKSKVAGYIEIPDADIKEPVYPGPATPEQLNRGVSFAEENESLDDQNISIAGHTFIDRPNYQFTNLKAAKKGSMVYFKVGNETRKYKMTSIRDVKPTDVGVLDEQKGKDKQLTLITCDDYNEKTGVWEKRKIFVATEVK
smiles,measurement,value
"COc1ccc(-c2cc(=O)c3c(O)cc(O)cc3o2)cc1 [acacetin, 5,7-dihydroxy-2-(4-methoxyphenyl)chromen-4-one]",IC50,128 µM

# From PMC6272931, “Acacetin Protects Mice from Staphylococcus aureus Bloodstream Infection by Inhibiting the Activity of Sortase A” (Molecules, 2016)
